In ChEMBL document CHEMBL5055667, “Development of Novel VEGFR2 Inhibitors Originating from Natural Product Analogues with Antiangiogenic Impact” (J Med Chem, 2021):
pIC50: −log10 of the molar value. Blank lines part the entries; values can stand above or below the molecule they belong to. Active and inactive are the calls of the source. No cut-off for these calls is given here.

What was measured:
[1] = target: Vascular endothelial growth factor receptor 2 (Homo sapiens, UniProt P35968); assay: Inhibition of VEGFR2 phosphorylation in VEGF-induced HUVEC cells pretreated measured after overnight incubation by immunoblotting analysis; type: cell-based
Sequence of Vascular endothelial growth factor receptor 2 (P35968 whole entry): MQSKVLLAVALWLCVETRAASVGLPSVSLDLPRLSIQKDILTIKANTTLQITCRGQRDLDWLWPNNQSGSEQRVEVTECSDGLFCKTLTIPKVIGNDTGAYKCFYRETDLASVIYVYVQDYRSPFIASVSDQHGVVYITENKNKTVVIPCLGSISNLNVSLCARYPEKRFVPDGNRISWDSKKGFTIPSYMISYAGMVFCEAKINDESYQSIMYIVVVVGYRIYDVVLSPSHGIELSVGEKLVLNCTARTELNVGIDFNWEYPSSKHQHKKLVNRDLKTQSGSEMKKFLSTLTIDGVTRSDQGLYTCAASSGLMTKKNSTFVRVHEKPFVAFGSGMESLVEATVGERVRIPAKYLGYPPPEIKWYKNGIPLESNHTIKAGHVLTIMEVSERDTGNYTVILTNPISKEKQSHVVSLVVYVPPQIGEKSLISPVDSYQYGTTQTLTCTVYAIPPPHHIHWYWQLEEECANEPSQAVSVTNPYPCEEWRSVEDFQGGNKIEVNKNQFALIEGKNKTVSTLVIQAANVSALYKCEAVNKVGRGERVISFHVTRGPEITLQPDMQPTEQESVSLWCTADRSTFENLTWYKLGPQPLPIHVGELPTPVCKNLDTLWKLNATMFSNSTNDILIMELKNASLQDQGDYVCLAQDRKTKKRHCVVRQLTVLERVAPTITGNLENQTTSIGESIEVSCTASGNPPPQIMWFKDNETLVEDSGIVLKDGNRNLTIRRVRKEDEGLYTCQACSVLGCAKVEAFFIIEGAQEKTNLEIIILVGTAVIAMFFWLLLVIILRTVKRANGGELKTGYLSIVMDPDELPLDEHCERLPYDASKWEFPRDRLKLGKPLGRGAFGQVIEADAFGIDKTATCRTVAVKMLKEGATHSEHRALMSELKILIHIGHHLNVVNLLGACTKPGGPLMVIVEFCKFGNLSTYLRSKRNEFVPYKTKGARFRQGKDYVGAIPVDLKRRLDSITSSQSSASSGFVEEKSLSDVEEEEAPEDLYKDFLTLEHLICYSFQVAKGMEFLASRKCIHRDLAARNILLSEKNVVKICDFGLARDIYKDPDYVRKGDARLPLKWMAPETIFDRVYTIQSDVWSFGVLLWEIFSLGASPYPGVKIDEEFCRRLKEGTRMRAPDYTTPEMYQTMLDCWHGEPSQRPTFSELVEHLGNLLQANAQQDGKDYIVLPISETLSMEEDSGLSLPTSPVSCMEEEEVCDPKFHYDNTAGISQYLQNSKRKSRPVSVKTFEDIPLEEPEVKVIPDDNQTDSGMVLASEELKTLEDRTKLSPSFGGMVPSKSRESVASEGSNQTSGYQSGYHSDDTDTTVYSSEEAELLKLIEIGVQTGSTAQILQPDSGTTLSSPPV

HUVEC [2] = assay: Antiproliferative activity against HUVEC cells incubated for 72 hrs under serum treatment by MTT assay; type: functional, cell-based; settings: Homo sapiens
U-87 MG [3] = assay: Antiproliferative activity against human U-87MG cells incubated for 72 hrs under serum treatment by MTT assay; type: functional, cell-based; settings: U-87MG ATCC
HUVEC [4] = assay: Antiproliferative activity against HUVEC cells incubated for 72 hrs under VEGF treatment by MTT assay; type: functional, cell-based; settings: Homo sapiens
U-87 MG [5] = assay: Antiproliferative activity against human U87MG cells incubated for 72 hrs under VEGF treatment by MTT assay; type: functional, cell-based; settings: U-87MG ATCC
U-87 MG [6] = assay: Antitumor activity against human U-87MG cells xenografted in mouse assessed as reduction in tumor size at 10 mg/kg, ip treated every other day for 20 days; type: functional, organism-based; settings: U-87MG ATCC, time 20.0 day
U-87 MG [7] = assay: Antitumor activity against human U-87MG cells xenografted in mouse assessed as reduction in tumor weight at 10 mg/kg, ip treated every other day for 20 days; type: functional, organism-based; settings: U-87MG ATCC, time 20.0 day
Mus musculus = assay: Toxicity in mouse assessed as change in body weight at 10 mg/kg, ip treated every other day for 20 days; type: organism-based; settings: in vivo, 480 h, time 20 day
U-87 MG [8] = assay: Antiangiogenic activity against human U-87MG cells xenografted in mouse assessed as reduction in vascular density at 10 mg/kg, ip treated every other day for 20 days by H& E staining analysis relative to control; type: functional, U-87MG ATCC; settings: 480 h, time 20 day
U-87 MG [9] = assay: Antiangiogenic activity against human U-87MG cells xenografted in mouse assessed as reduction in Bcl-xl expression at 10 mg/kg, ip treated every other day for 20 days by Western blotting analysis; type: functional, U-87MG ATCC; settings: 480 h, time 20 day
U-87 MG [10] = assay: Antiangiogenic activity against human U-87MG cells xenografted in mouse assessed as reduction in CD31 expression at 10 mg/kg, ip treated every other day for 20 days by Western blotting analysis; type: functional, U-87MG ATCC; settings: 480 h, time 20 day
U-87 MG [11] = assay: Antiangiogenic activity against human U-87MG cells xenografted in mouse assessed as reduction in pVEGFR2 expression at 10 mg/kg, ip treated every other day for 20 days by Western blotting analysis; type: functional, U-87MG ATCC; settings: 480 h, time 20 day
U-87 MG [12] = assay: Antiangiogenic activity against human U-87MG cells xenografted in mouse assessed as reduction in HIF1alpha expression at 10 mg/kg, ip treated every other day for 20 days by fluorescence microscopy; type: functional, organism-based; settings: U-87MG ATCC, time 20.0 day

Structure (SMILES): COc1ccc2[nH]c3c(c2c1)CN(C(=O)CN1CCOCC1)CCC3
- pIC50 [1]: < 4.70

Structure (SMILES): COc1ccc2[nH]c3c(c2c1)CNCCC3
- pIC50 [1]: < 4.70

Structure (SMILES): COc1ccc2[nH]c3c(c2c1)CN(C(=O)Cc1ccccn1)CCC3
- Activity (HUVEC [2]): inactive
- Activity (U-87 MG [3]): inactive
- Activity (HUVEC [4]): Active
- Activity (U-87 MG [5]): Active
- Activity (U-87 MG [6]): Active
- Activity (U-87 MG [7]): Active
- Activity (Mus musculus): Non-Toxic
- inhibition in vivo at 10 mg/kg (U-87 MG [8]): 73%
- inhibition in vivo at 10 mg/kg (U-87 MG [9]): 20%
- inhibition in vivo at 10 mg/kg (U-87 MG [10]): 60%
- inhibition in vivo at 10 mg/kg (U-87 MG [11]): 60%
- Activity (U-87 MG [12]): Active

More lines, now with the values ahead:

- pIC50 [1]: < 4.70
Structure (SMILES): COc1ccc2[nH]c3c(c2c1)CN(C(=O)Cc1ccccc1)CCC3

- pIC50 [1]: < 4.70
Structure (SMILES): COc1ccc2[nH]c3c(c2c1)CN(C(=O)CC(C)C)CCC3

- pIC50 [1]: < 4.70
Structure (SMILES): COc1ccc2[nH]c3c(c2c1)CN(C(=O)Cc1ccncc1)CCC3
